Among the test systems are KM12; SF-295; HOP-92; NCI-H226; HCC 2998; ACHN; NCI-H460; DU-145; SK-MEL-5; HCT-116; HT-29; SF-539; SNB-75; OVCAR-5; UACC-257; TK-10; EKVX; MCF7; SR; OVCAR-3.
Assay in all cases: NCI-60 cell line screen, 48 h

“And” between values parts separate entries of the source, which are not always exact repeats. Equal values may be shown once.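 Cultured in 96-well plates, cells were exposed to test compound for 48 hours across five concentrations. GI50 marks 50% less growth.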 The source made the active and inactive calls. No stated cut-off is given here; in the data, active = GI50 up to about 1.1 µM and inactive = higher. Bounds are passed on as bounds.

For the compound `CN(C)c1ccc(NN=C2SC(=N\c3ccccc3)/C(=N/c3ccccc3)S2)cc1`, the GI50 in the test on KM12 is 18.2 µM (inactive); in the test with SF-295, > 100 µM (inactive); in the test with HOP-92 it was 22.8 µM (inactive); with NCI-H226, > 100 µM (inactive); in the test with HCC 2998, 26.6 µM (inactive); in the test with ACHN, > 100 µM (inactive). Moreover, the GI50 in the test on NCI-H460 was 13 µM (inactive); in the test on DU-145, > 100 µM (inactive); with SK-MEL-5 it was 19.8 µM (inactive); with HCT-116 it was 14.9 µM (inactive); in the test with HT-29, 15.5 µM (inactive); in the test with SF-539, 53.7 µM (inactive). Moreover, the GI50 with SNB-75 is 27.3 µM (inactive); in the test with OVCAR-5, 70.5 µM (inactive); in the test on UACC-257, 8.2 µM (inactive); in the test on TK-10, > 100 µM (inactive); in the test with EKVX it was 12.8 µM (inactive).
Regarding `COc1ccc2c(c1)N=C1CSC(c3cccc(Br)c3)N1C2` (stereo not drawn), the GI50 with KM12 was 10.9 µM (inactive); in the test on SF-295, 14.2 µM (inactive); with HOP-92, 16.7 µM (inactive); in the test on NCI-H226, 22.9 µM (inactive); with HCC 2998, 6.43 µM (inactive); with ACHN, 13.3 µM (inactive). Also, the GI50 is 7.62 µM (inactive) in the test with NCI-H460; 6.59 µM (inactive) in the test with MCF7; 10.4 µM (inactive) in the test with SK-MEL-5; 10.8 µM (inactive) with HCT-116; 14.8 µM (inactive) with HT-29; 17.9 µM (inactive) with SF-539. Also, the GI50 is 15.5 µM (inactive) in the test with SNB-75; 4.52 µM (inactive) with SR; 18.8 µM (inactive) with OVCAR-5; 10.5 µM (inactive) in the test on UACC-257; 16 µM (inactive) with TK-10; 13.2 µM (inactive) in the test on EKVX.
Turning to `C=CCOC(=O)C[C@H](NC(=O)[C@H](Cc1ccc(O)cc1)NCC(F)(F)F)C(=O)OCC=C`, the GI50 is > 100 µM (inactive) with KM12; > 100 µM (inactive) in the test with SF-295; > 100 µM (inactive) with HOP-92; > 100 µM (inactive) with NCI-H226; 83.4 µM (inactive) in the test on HCC 2998; > 100 µM (inactive) in the test with ACHN. Moreover, the GI50 with NCI-H460 was 59.6 µM (inactive); in the test with MCF7 it was 53.8 µM (inactive); in the test with SK-MEL-5 it was 30.5 µM (inactive); with HCT-116, > 100 µM (inactive); with HT-29, > 100 µM (inactive); with SF-539, 57.8 µM (inactive). Besides, the GI50 is 31.6 µM (inactive) in the test with SNB-75; 34 µM (inactive) with SR; > 100 µM (inactive) with OVCAR-5; 20.8 µM (inactive) in the test on UACC-257; > 100 µM (inactive) in the test on TK-10; 25.5 µM (inactive) in the test on EKVX.
As for `CC1=CC(=O)/C(=C/NC(N)=S)C(=O)O1`, the GI50 was > 100 µM (inactive) in the test with OVCAR-3; > 100 µM (inactive) in the test on KM12; > 100 µM (inactive) in the test on SF-295; 15.3 µM (inactive) in the test with HOP-92; > 100 µM (inactive) in the test on NCI-H226; > 100 µM (inactive) with HCC 2998. The GI50 in the test on ACHN was > 100 µM (inactive); with NCI-H460, > 100 µM (inactive); in the test on DU-145, > 100 µM (inactive); in the test on MCF7, > 100 µM (inactive); in the test on SK-MEL-5 it was 92 µM (inactive); with HCT-116, > 100 µM (inactive). Further, the GI50 was > 100 µM (inactive) in the test with SF-539; 48.1 µM (inactive) in the test on SNB-75; > 100 µM (inactive) with OVCAR-5; > 100 µM (inactive) in the test with UACC-257; 10.1 µM (inactive) with TK-10; > 100 µM (inactive) in the test with EKVX.
Take `O=C1/C(=C/c2cccc([N+](=O)[O-])c2)Sc2scc(-c3ccc([N+](=O)[O-])cc3)[n+]21`: the GI50 in the test with OVCAR-3 was 31.6 µM (inactive); in the test with KM12 it was 15.2 µM (inactive); in the test on SF-295, 14.8 µM (inactive); in the test on HOP-92, 24.5 µM (inactive); in the test with NCI-H226, 26.3 µM (inactive); with HCC 2998, 16.4 µM (inactive). The GI50 in the test with ACHN is 19.8 µM (inactive); in the test on NCI-H460 it was 11.4 µM (inactive); in the test on DU-145 it was 35.2 µM (inactive); in the test with MCF7, 24.7 µM (inactive); with SK-MEL-5, 27.7 µM (inactive); in the test with HCT-116, 16 µM (inactive). The GI50 in the test on HT-29 was 17.4 µM (inactive); in the test with SF-539, 23.8 µM (inactive); in the test on SNB-75, 11 µM (inactive); in the test on OVCAR-5, 24.5 µM (inactive); in the test on UACC-257, 21.8 µM (inactive); in the test with EKVX, 18.4 µM (inactive).
`C/C(=N\Nc1nc2ccccc2[nH]1)c1ncccn1`: the GI50 was 0.871 µM (active) in the test with OVCAR-3; 0.136 µM (active) with KM12; 0.0453 µM (active) with SF-295; 0.0552 µM (active) in the test on HOP-92; 0.0422 µM (active) with NCI-H226; 0.721 µM (active) in the test with HCC 2998. Also, the GI50 in the test on ACHN is < 0.0232 µM (active); in the test on NCI-H460, 0.0299 µM (active); with MCF7, 0.0321 µM (active); with SK-MEL-5, 0.0574 µM (active); with HCT-116 it was 0.0226 µM (active); with HT-29, 0.0236 µM (active). In addition, the GI50 was 0.0172 µM (active) with SF-539; 0.119 µM (active) with SNB-75; < 0.021 µM (active) in the test on SR; 0.735 µM (active) with OVCAR-5; 0.136 µM (active) with UACC-257; 1.31 µM (inactive) in the test with TK-10. Besides, the GI50 with EKVX is 0.026 µM (active).
Turning to `CC(=O)OC1CC[C@@]2(C)C(C1)CC(OC(C)=O)[C@@H]1C2CC(OC(C)=O)[C@]2(C)C(C(C)CC=C(c3ccc(Cl)cc3)c3ccc(Cl)cc3)CCC12` (stereo partly drawn), the GI50 was 64 µM (inactive) with KM12; 52.1 µM (inactive) with SF-295; 94 µM (inactive) in the test with HCC 2998; 23.3 µM (inactive) in the test with ACHN; 26.3 µM (inactive) in the test with NCI-H460; 38.8 µM (inactive) with MCF7. For the same compound, the GI50 was 55.1 µM (inactive) in the test on SK-MEL-5; 19.6 µM (inactive) with HCT-116; 39 µM (inactive) in the test with HT-29; 67.3 µM (inactive) with SF-539; 49.5 µM (inactive) in the test on SNB-75; 20.2 µM (inactive) in the test with SR. Also, the GI50 was 36.8 µM (inactive) with OVCAR-5, 38.6 µM (inactive) in the test on UACC-257, 80.4 µM (inactive) in the test with TK-10 and 97.1 µM (inactive) in the test with EKVX.
For the compound `COc1cccc2c1C(=O)c1c(O)c3c(c(O)c1C2=O)C[C@@](O)(C(=O)CO)C[C@@H]3OC1CC(N)C(O)C(C)O1` (stereo partly drawn), the GI50 is 394 nM (active) and 474 nM (active) in the test with OVCAR-3; 254 nM (active) and 366 nM (active) in the test with KM12; < 43.6 nM (active) and 58.1 nM (active) in the test on NCI-H226; 314 nM (active) and 191 nM (active) in the test on HCC 2998; 0.255 µM (active) in the test with ACHN; 0.0169 µM (active) in the test on MCF7. Besides, the GI50 in the test on SK-MEL-5 was 114 nM (active) and 72.8 nM (active); with HCT-116 it was 66.5 nM (active) and 72.6 nM (active); in the test on HT-29 it was 312 nM (active) and 187 nM (active); with SR it was 10 nM (active) and 12.2 nM (active); in the test with OVCAR-5, 658 nM (active) and 733 nM (active); in the test on UACC-257 it was 215 nM (active) and 337 nM (active). In addition, the GI50 with TK-10 is 726 nM (active) and 404 nM (active); with EKVX, 547 nM (active) and 301 nM (active).

Source of the values: ChEMBL document CHEMBL1201862, “PubChem BioAssay data set” (2004).
